Assay results as given in US20230255952A1, “METHODS FOR TREATING CHRONIC OBSTRUCTIVE PULMONARY DISEASE” (THERAVANCE BIOPHARMA R&D IP, LLC, priority 2018, published 2023).
Entries after “also recorded” stand apart in the source; their conditions may differ.

System: subjects with chronic obstructive pulmonary disease and a low peak inspiratory flow rate
Assay: 28-day randomized, double-blind, double-dummy, parallel-group clinical study: once-daily revefenacin by nebulizer vs once-daily tiotropium by dry powder inhaler, lung function
Assay type: in vivo, human
Settings: for Trough FEV1, LS Difference (SE), REV vs TIO / Trough FVC, LS Difference (SE), REV vs TIO / Trough IC, LS Difference (SE), REV vs TIO: REV 175 μg nebulizer vs TIO 18 μg dry powder inhaler; for Trough FEV1, LS Mean (SE) / Trough FVC, LS Mean (SE) / Trough IC, LS Mean (SE): change from baseline after 28 once-daily doses, TIO 18 μg dry powder inhaler, REV 175 μg nebulizer
Procedure: A 28-day, randomized, double-blind, double-dummy, parallel-group study was conducted to compare once-daily revefenacin (175 μg of revefenacin in 3 mL of an isotonic, sterile aqueous solution containing sodium chloride, citric acid, sodium citrate, and water for injection at pH 5.0) delivered using a nebulizer (Trek S jet nebulizer (PARI, Midlothian, Va., USA) with once-daily tiotropium (18 μg/day) delivered using a dry powder inhaler (Spiriva HandiHaler, Boebringer Ingelheim Pharmaceuticals, Inc., Ridgefield, Conn., USA) on lung function in subjects with chronic obstructive pulmonary disease and a low peak inspiratory flow rate. Subjects with moderate to very severe COPD were allowed to use concurrent respiratory therapy with the exception of other inhaled anticholinergics. The primary endpoint of the study was the change from baseline in trough forced expiratory volume in one second (FEV1) after the 28th dose. Secondary endpoints included the change from baseline in peak FEV1, trough forced vital capacity (FVC), peak FVC and trough inspiratory capacity (IC) as well as the safety and tolerability of revefenacin 175 μg. Inclusion criteria were: age≥40 years; a smoking history≥10 pack years; a diagnosis of COPD (post-bronchodilator FEV1≤80% predicted and FEV/FVC≤70%); peak inspiratory flow rate (PIFR)<60 L/min as measured by IN-CHECK® DIAL device with resistance set to DISKUS® at screening.
In this study, revefenacin (REV) (administered using a nebulizer) or tiotropium (TIC)) (administered using a dry powder inhaler) was dosed once-daily for 28 days, Peak inspiratory flow rates (best of three) were determined at screening, randomization and end of study using the IN-CHECK® DIAL device with the resistance set to a resistance equal or similar to the resistance associated with the DISKUS® device. FEV1, FVC and IC were measured at baseline and/or peak on day 1 and on day 29. Safety was assessed via the collection of adverse events.

[1] = % predicted FEV1 <50% subpopulation, PIFR <60 L/min
[2] = ITT population, all subjects PIFR <60 L/min
[3] = ITT population, all subjects low PIFR, listed as revefenacin
[4] = subjects with low PIFR (<60 L/min) and percent predicted FEV1 <50%, listed as revefenacin

Structure (SMILES) | Trough FEV1, LS Difference (SE), REV vs TIO [1] | Trough FVC, LS Difference (SE), REV vs TIO [1] | Trough IC, LS Difference (SE), REV vs TIO [1] | Trough FEV1, LS Mean (SE) [1] | Trough FVC, LS Mean (SE) [1] | Trough IC, LS Mean (SE) [1] | Trough IC, revefenacin by nebulizer compared to tiotropium by dry powder inhaler (in words) (ITT population or subpopulation with low PIFR and percent predicted FEV1 <50%, listed as revefenacin) | Trough FEV1, LS Difference (SE), REV vs TIO (ITT population, PIFR <60 L/min) | Trough FVC, LS Difference (SE), REV vs TIO (ITT population, PIFR <60 L/min) | Trough IC, LS Difference (SE), REV vs TIO (ITT population, PIFR <60 L/min) | Trough FEV1, LS Mean (SE) [2] | Trough FVC, LS Mean (SE) [2] | Trough IC, LS Mean (SE) [2] | Trough FEV1, revefenacin by nebulizer compared to tiotropium by dry powder inhaler (in words) [3] | Trough FVC, revefenacin by nebulizer compared to tiotropium by dry powder inhaler (in words) [3] | Trough FEV1, revefenacin by nebulizer compared to tiotropium by dry powder inhaler (in words) [4] | Trough FVC, revefenacin by nebulizer compared to tiotropium by dry powder inhaler (in words) [4]
CN(CCN1CCC(OC(=O)Nc2ccccc2-c2ccccc2)CC1)C(=O)c1ccc(CN2CCC(C(N)=O)CC2)cc1 [REV, 1-(2-{4-[(4-carbamoylpiperidin-1-yl)methyl]-N-methylbenzamido}ethyl) piperidin-4-yl N-([1,1′-biphenyl]-2-yl)carbamate] | 47.3 (21.76) | 99.9 (48.75) | 13.7 (45.43) | 74.8 (20.85) | 146.5 (46.69) | 89.7 (42.85) | No differences in trough IC were noted; also recorded: statistically significant difference in trough IC was not observed | 15.7 (22.35) | 69.6 (42.90) | −12.7 (47.38) | 63.0 (20.17) | 125.4 (38.75) | 71.4 (42.33) | did not meet statistical significance nor clinical relevance; also recorded: statistically significant difference in trough FEV1 was not observed | did not meet statistical significance nor clinical relevance; also recorded: statistically significant difference in trough FVC was not observed | statistically significant and clinically relevant greater improvements; also recorded: statistically significant difference in trough FEV1 was observed | statistically significant and clinically relevant greater improvements; also recorded: statistically significant difference in trough FVC was observed
C[N+]1(C)[C@@H]2C[C@@H](OC(=O)C(O)(c3cccs3)c3cccs3)C[C@H]1[C@@H]1O[C@@H]12 [TIO, tiotropium, reference compound] |  |  |  | 27.5 (19.53) | 46.7 (43.56) | 76.0 (40.40) |  |  |  |  | 47.3 (19.06) | 55.8 (36.62) | 84.1 (40.02) |  |  |  | 
